In patent publication US20130137116A1, “METHOD AND KIT FOR DETECTING THE EARLY ONSET OF RENAL TUBULAR CELL INJURY” (priority 2003, published 2013):

Experiments:
rat = settings: after the initial insult; cited from earlier work
male Swiss-Webster mice = settings: larger dose (20 μg/kg as printed), previously shown; cited from earlier work
[1] = test system: Human renal proximal tubular epithelial cells (RPTEC); experiment: Mild ATP depletion of cultured cells (in vitro ischemia) with antimycin A; assay type: cell-based; settings: 1 μm antimycin; for ATP level (partial ATP depletion): mean+/-SD from four experiments
Method: Human renal proximal tubular epithelial cells (RPTEC) were obtained from Clonetics (San Diego, Calif.). Cells were grown in Renal Epithelial Cell Basal Medium supplemented with REGM complex ([…] hydrocortisone, 10 pg/ml hEGF, 0.5 μg/ml epinephrine, 6.5 pg/ml triiodothyronine, 10 μg/ml transferrin, 5 μg/ml insulin, 1 μg/ml gentamicin sulfate, and 2% FBS), as recommended by the manufacturer.
We modified previously described protocols of in vitro ischemia by ATP depletion with inhibitors of oxidative phosphorylation (8, 9). On the second day post-confluence, RPTEC cells were incubated with 1 μm antimycin A (Sigma) for varying periods of time up to 6 h. […] ATP levels were monitored using a luciferase-based assay kit (Sigma), and expressed as a percentage of control values. Cells were harvested at various time points of ATP depletion, and analyzed for NGAL mRNA expression by RT-PCR and NGAL protein expression by Western analysis. The secretion of NGAL into the culture medium was also monitored.
In order to confirm the origin of NGAL from ischemic proximal tubule cells, we modified previously described protocols of in vitro ischemia by ATP depletion in cultured human proximal tubule cells (RPTEC). […] NGAL mRNA was just detectable in resting cells.

Compound	Time at which KIM-1 is qualitatively detectable (rat)	Time to tubule cell necrosis and apoptosis, and impaired renal function (male Swiss-Webster mice)	ATP level (partial ATP depletion) ([1]; by 6 h)	Morphological consequences of mild ATP depletion ([1]; up to 6 h)	ATP level (partial ATP depletion) ([1]; within 1 h)	NGAL mRNA induction by RT-PCR ([1]; following partial ATP depletion)
N.N.[Cl][Pt][Cl] [cisplatin]	24 to 48 h	3 to 4 days	–	–	–	–
antimycin A	–	–	about 75±3 % of control	No morphological consequences	about 83±3 % of control	rapid and duration-dependent induction
